In the assay the test system is RCS rats. Description: Retinal degeneration in RCS rats: histological and morphometric analysis of the retina after daily intramuscular injections. It is filed as in vivo, rat. From the text:
Royal College Surgeons (RCS) rats were used. In RCS rats, a progressive loss of photoreceptor cells, caused by a recessively autosomal mutation of the RPE (La Vail, 1981), leads to severe visual impairment. Due to the failure of pigment epithelium phagocytosis, rod outer segment material accumulates between the retina and the RPE and results in retinal degeneration. […] The age of the animals in the experiment will hereinafter be referred to in relation with the postnatal day which will be indicated as pn, wherein n=the postnatal day. This disorder is similar to age-related macular degeneration in humans in that a metabolic insufficiency of the RPE cells results in a secondary progressive photoreceptor loss and vision impairment.
Enucleated eyes removed from the orbit eyes were fixated for plastic embedding in epoxy resin (Faktorovitch 1990; La Vail, 1981). The eyes were sectioned parallel to the vertical meridian.
The histological sections which were analyzed originated from the posterior part of the eye, from ora serata to ora serata including the optic nerve. Each histological preparation was analyzed by computerized image analysis. Twelve measurements (six from each side of the optic nerve) were taken at pre-determined points. At each point the number of rows of photoreceptors in the outer nuclear layer (ONL), as well as the thickness of inner plexiform layer (IPL) were determined.
The RCS rats of the experiment were divided into three groups of rats, each group including eight rats (8 eyes). The three groups were as follows:
1. RCS rats at the age of p23 receiving no treatment.
2. RCS rats at the age of p38 receiving no treatment.
3. RCS rats at the age of p23 receiving daily intramuscular injections to the hind leg containing α-MSH analog which was prepared as described above. Each rat received 0.01 micrograms of the α-MSH analog in 0.2 ml PBS in each injection.
The rats were sacrificed at the age of p38, the eyes were enucleated and then subjected to fixation and histological sections were prepared, as described above. The histological preparations of the eyes were examined morphometrically as described above and, in addition, the retinas were also examined by light microscopy.
The effect of α-MSH analog treatment on the retinas of the rats was quantitated by measuring the two following parameters at 11 or 14 points in the retina at various distances from the optic nerve:
An experiment similar to the one described above was also carried out in which the α-MSH analog treatment of Group 3 rats was replaced by α-MSH treatment. The result of this experiment, not shown were similar to the results of the above described experiment.

Setting [1] is: RCS rats, daily i.m. injections, compared to untreated rats.

Consider Nle^4 D-Phe^7 α-MSH [α-MSH analog], for which the “number of layers of photoreceptors in the ONL (histological preparation, FIG. 3)” value (RCS rat at p38, daily intramuscular injections p23 to p38, 0.01 micrograms per injection, untreated 3-4 layers) is 7-8 layers. Further, for the setting “RCS rats at p38, ONL photoreceptor rows, treated vs non-treated”, the “mean row number in treated higher than in non-treated” value worked out at 60%. The “mean number of photoreceptor rows in ONL (FIG. 4)” value (RCS rats at p38, daily i.m. injections, 9 out of 11 points of measurement, non-treated 3.5±0.4, p<0.05) was found to be 5.6±0.6 rows. In addition, for the setting “RCS rats at p38, central sector of the retina, 1.3 mm of each side of the optic nerve, untreated 23 microns, p<0.05”, the “thickness of the inner plexiform layer (IPL) (FIG. 5)” value worked out at 50 microns. Under setting [1], the “effect on photoreceptor degeneration (in words)” value is reported as “rescued from degeneration” and the “effect on thickness of IPL / adjacent retinal layers (in words)” value was “significantly greater”. The “effective dose per rat (daily intramuscular injection)” value (RCS rats, dose needed to obtain the same effect on photoreceptor degeneration and retinal layer thickness) is reported as 0.01-0.5 microgram. Further, the “number of rows of photoreceptors in the ONL, fold higher than non-treated” value (points 0.8 mm and 1.7 mm away from the optic nerve, Group 3 vs Group 2, p<0.001) stood at 2 ×.

(Values after patent US5891847A, “Treatment of degenerative eye disorders” (Ramot University Authority for Applied Research and …, priority 1992, dated 1999).)
